{"source": "paper PMC7504387", "about": "“Antimicrobial and Amyloidogenic Activity of Peptides Synthesized on the Basis of the Ribosomal S1 Protein from Thermus Thermophilus” (International Journal of Molecular Sciences, 2020)", "key": {"[1]": {"test": "Thioflavine T fluorescence assay of peptide aggregation", "assay_type": "physicochemical", "details": "ThT 0.2 mM, 37 °C; for amyloids in peptide preparation according to ThT fluorescence: peptide alone; for ThT fluorescence intensity, final: peptide alone 0.2 mM, 1% DMSO, end of kinetics (time axis to 80 min)", "procedure": "(§1) Fibrils growth was monitored by thioflavine T (ThT) (Sigma-Aldrich, St. Louis, MO, USA) fluorescence. The kinetics of aggregation of peptides was studied using the method of fluorescence spectroscopy. Each kinetics graph was plotted based on the average of several results measured at different time intervals. To facilitate dissolution, all the samples of peptides were pre-dissolved in 100% DMSO, then buffers 50 mM Tris-HCl, pH 7.5, 150 mM NaCl or 20% acetic acid pH 2.0, 150 mM NaCl were added (1% final concentration DMSO) and filtered through […] membranes to remove small aggregates. ThT is the most commonly used fluorescent dye for the following amyloid formation semi-quantitatively in vitro. Free ThT has excitation and emission maxima at ∼350 and ∼450 nm, respectively (after binding to fibrils, the excitation and emission λmax change to ∼450 and ∼482–485 nm, respectively). A stock solution of ThT was prepared at a concentration of 20 mM in 50 mM Tris-HCl, pH 7.5, 150 mM NaCl or 20% acetic acid pH 2.0, 150 mM NaCl, respectively and stored at 4 °C protected from light. The final concentration of ThT was 0.2 mM, and each peptide was 0.2 mM. ThT was present in the sample during the fibril formation reaction. Measurements of ThT fluorescence were performed on a Cary Eclipse fluorescence spectrophotometer (Varian, Mulgrave, Australia) in quartz cells 3 × 3 mm at 37 °C."}, "[2]": {"test": "Transmission electron microscopy of peptide preparations", "assay_type": "physicochemical", "details": "peptide alone", "procedure": "(§2) The presence of amyloid fibrils in the test samples was monitored by transmission electron microscopy (TEM). End-point solutions of peptides were collected and the samples were dissolved in the same solution to 0.2 mg/mL before studying with electron microscopy. A formvar-coated copper grid 400 mesh (Electron Microscopy Sciences, Hatfield, PA, USA) was placed on a 10 μL sample. After 5 min absorption, the grids with the preparation were negatively stained for 1.5–2.0 min with 1% (weight/volume) aqueous solution of uranyl acetate. The excess of the staining agent was removed with filter paper. The preparations were analyzed using a JEM-100C (Jeol, Tokyo, Japan) transmission electron microscope at the accelerating voltage of 80 kV. Images were recorded on the Kodak electron image film (SO-163) at nominal magnification of 40,000–60,000."}, "[3]": {"tested_on": "T. thermophilus cell culture", "assay_type": "cell-based", "details": "for minimal inhibitory concentration (MIC): optical absorption at 600 nm after 24 h incubation, 5 repeats for R23I, 2 for R23T and V10I", "procedure": "UV-Vis spectra were recorded using a spectrophotometr SF-102 (Akvilon, Moscow, Russia). At the end of the incubation, the density of the medium was estimated by spectrophotometry in a cuvette 10 mm with a total volume of 100 μL. The cuvettes were filled with the peptide water solutions and spectra were collected, using a wavelength from 600 nm. Biological activity of peptides was evaluated by their minimum concentration, which that may inhibit the growth of T. thermophilus bacteria culture. Biological activity of peptides was counted by using the following equation: (1) E=1−A (sample with peptide)/A (sample without peptide), where E is a biological activity of peptides, A is an optical absorption after 24 h incubation with and without peptide.\nTo construct a dose-effect curve and estimate the quantitative parameters of the curves, the statistical environment R and the drc package were used. The choice of model for describing the functional dependence was determined by several parameters: the logarithm of the maximum value of the likelihood function (logLik), the Akaike information criterion (IC), and the residual variance (Res var).\nThe algorithm for evaluating antimicrobial activity includes the study of this process and the dose–response relationship. The reaction of a biological object determines a quantitative assessment of the antimicrobial effect, depending not only on the concentration of the peptide, but also on the time of its action. Almost any impact begins with a certain threshold. An important final result of the experiment is the assessment of this threshold—the minimum inhibitory concentration (MIC) at which peptide influence is observed."}, "[4]": {"tested_on": "ribosomal S1 protein from T. thermophilus", "test": "Electron microscopy, coaggregation of peptide with S1 protein", "procedure": "as §2"}, "[5]": {"tested_on": "T. thermophilus cells", "test": "Electron microscopy of intact and peptide-treated T. thermophilus cells", "assay_type": "cell-based", "procedure": "Along with the spectrophotometric method for determining the antimicrobial activity of peptides, the viability of cells was evaluated using electron microscopy. […] At the given peptide concentration, cells with a typical morphology and flagella were often found. Many protein aggregates were also observed. The absence of an antimicrobial effect with an increase in the concentration of the peptide to 1000 μg/mL, consistent with the spectrophotometry data of the antimicrobial activity of peptides (Figure 3).\nas §2"}, "[6]": {"tested_on": "ribosomal S1 protein from T. thermophilus", "test": "Thioflavine T fluorescence, coaggregation of peptide with S1 protein", "details": "S1:peptide ratios 1:1 and/or 1:5", "procedure": "as §1"}, "[7]": {"details": "peptide:S1 protein ratio 5:1 (S1:peptide = 1:5)"}}, "note": "Entries after “also recorded” stand apart in the source; their conditions may differ. Where a SMILES comes first, the peptide text is derived from it. Where no end group is shown, it is not given here. [ ]: non-standard residue; d: D form. Sar = CNCC(=O)O", "data": [{"compound": "CC(C)[C@H](NC(=O)CNC(=O)CN(C)C(=O)CNC(=O)CNC(=O)[C@H](CCCNC(=N)N)NC(=O)[C@H](CCCNC(=N)N)NC(=O)[C@H](CCCNC(=N)N)NC(=O)[C@H](CCC(N)=O)NC(=O)[C@H](CCCNC(=N)N)NC(=O)[C@H](CCCNC(=N)N)NC(=O)[C@H](CCCCN)NC(=O)[C@H](CCCCN)NC(=O)[C@@H](N)CCCNC(=N)N)C(=O)N[C@H](C(=O)N[C@@H](CCC(=O)O)C(=O)NCC(=O)N[C@H](C(=O)N[C@H](C(=O)N[C@H](C(=O)N[C@@H](CCC(=O)O)C(=O)N[C@H](C(=O)N[C@H](C(=O)O)[C@@H](C)O)C(C)C)C(C)C)C(C)C)[C@@H](C)O)C(C)C", "note": "[R23T] (HELM PEPTIDE1{R.K.K.R.R.Q.R.R.R.G.G.[Sar].G.V.V.E.G.T.V.V.E.V.T}$$$$V2.0; N-terminus and C-terminus assumed)", "values": [{"measurement": "amyloids in peptide preparation according to ThT fluorescence", "setting": "[1]", "value": "absence of R23T amyloids"}, {"measurement": "fibril/aggregate formation by electron microscopy", "setting": "[2]; 5 h incubation at 37 °C, 50 mM TrisHCl pH 7.5, 150 mM NaCl", "value": "did not form fibrils, but the aggregates were observed"}, {"measurement": "minimal inhibitory concentration (MIC)", "setting": "[3]; T. thermophilus culture", "value": 500, "unit": "µg/mL"}, {"measurement": "morphology of peptide/S1 protein mixture by electron microscopy", "setting": "[4]; peptide:S1 protein ratio 1:1", "value": "aggregates are observed; also recorded: aggregates of different sizes"}, {"measurement": "morphology of peptide/S1 protein mixture by electron microscopy", "setting": "[4]; [7]", "value": "aggregates of different morphology (type 1 and type 2), fibrils and thin films are formed; also recorded: both the fibrils and films were formed"}, {"measurement": "cell morphology by electron microscopy", "setting": "[5]; peptide 100 μg/mL", "value": "did not differ from the control"}, {"measurement": "cell morphology by electron microscopy", "setting": "[5]; peptide 500 μg/mL", "value": "cells were often damaged"}]}, {"compound": "NC[C@H]1O[C@H](O[C@H]2[C@H](O)[C@@H](O[C@H]3O[C@H](CO)[C@@H](O)[C@H](N)[C@H]3O)[C@H](N)C[C@@H]2N)[C@H](O)[C@@H](O)[C@@H]1O", "note": "[kanamycin, reference compound]", "values": [{"measurement": "change of optical density of T. thermophilus culture over time", "setting": "[3]; 50 μg/mL in medium, OD 600 nm versus sampling time, DMSO control reached 0.8", "value": "no increase in the optical density"}, {"measurement": "effectiveness E = 1 − A(sample with peptide)/A(sample without peptide)", "setting": "[3]; T. thermophilus culture, OD 600 nm, 24 h, maximum observed, probably a limitation of the method", "value": "≤ 0.8"}, {"measurement": "concentration close to 50% of the inhibition of cell culture growth", "setting": "[3]; T. thermophilus culture, dose-response curve, log-logistic model", "value": "~10", "unit": "µg/mL"}]}, {"compound": "DFGVFVNLG [D9G, amyloidogenic peptide … based on the ribosomal S1 protein from T. thermophilus]", "values": [{"measurement": "biological activity (growth inhibition) in the range of studied concentrations", "setting": "[3]; T. thermophilus culture, OD 600 nm, 24 h, single repeat", "value": "did not show biological activity"}]}, {"compound": "GlyGlySarGlyVTDFGVFVEI [G14I, elongated peptide GlyGlySarGly[…]]", "values": [{"measurement": "ThT fluorescence intensity, final", "setting": "[1]", "value": 80, "unit": "a.u."}, {"measurement": "amyloids in peptide preparation according to ThT fluorescence", "setting": "[1]", "value": "presence of amyloids"}]}, {"compound": "GlyGlySarGlyVVEGTVVEVT (GG[Sar]GVVEGTVVEVT) [G14T, elongated peptide GlyGlySarGly…]", "values": [{"measurement": "amyloids on joint incubation with S1 protein according to ThT fluorescence", "setting": "[6]", "value": "presence of amyloids, which tend to disaggregate"}, {"measurement": "ThT fluorescence intensity, final", "setting": "[1]", "value": 4, "unit": "a.u."}, {"measurement": "amyloids in peptide preparation according to ThT fluorescence", "setting": "[1]", "value": "presence of amyloids"}, {"measurement": "aggregate/fibril morphology according to electron microscopy", "setting": "[2]; negative staining, TEM", "value": "short dense fibrils"}, {"measurement": "morphology of peptide/S1 protein mixture by electron microscopy", "setting": "[4]; peptide:S1 protein ratio 1:1", "value": "fibrils are not formed"}]}, {"compound": "VTDFGVFVEI [V10I]", "values": [{"measurement": "minimal inhibitory concentration (MIC)", "setting": "[3]; T. thermophilus culture", "value": 1000, "unit": "µg/mL"}]}, {"compound": "VVEGTVVEVT [V10T, unmodified amyloidogenic peptide … based on the ribosomal S1 protein from T. thermophilus]", "values": [{"measurement": "amyloids on joint incubation with S1 protein according to ThT fluorescence", "setting": "[6]", "value": "presence of amyloids, which tend to disaggregate"}, {"measurement": "morphology of peptide/S1 protein mixture by electron microscopy", "setting": "[4]; peptide:S1 protein ratio 1:1", "value": "only aggregates are present"}, {"measurement": "morphology of peptide/S1 protein mixture by electron microscopy", "setting": "[4]; [7]", "value": "both aggregates and fibrils are present; also recorded: led to the formation of fibrils"}, {"measurement": "cell morphology by electron microscopy", "setting": "[5]; peptide 100 μg/mL", "value": "had no toxic effect"}]}]}
